Test: acute lethality in dogs
Conditions: dog, in vivo; administered 500 mg/min in dogs; approximately
Description: From an energetic point of view the advantage of using FDP as the initial substrate is that the net yield of the anaerobic metabolism of one mole of glucose is 2 ATP, while if one mole of FDP is metabolized in the same conditions it will produce 4 ATP because there is no phosphorylation of glucose and fructose-6-phosphate, reactions which require utilization of ATP. On the other hand, while doubling the quantity of ATP produced, lactate production remains the same as though one mole of glucose had been metabolized. It is obvious that in order to obtain results in the direction of making usuable energy from FDP, it is necessary to administer a large quantity. (The LD50 of FDP when administered 500 mg/min in dogs is approximately 5.8-6 g/kg.)

## O=C(COP(=O)(O)O)[C@@H](O)[C@H](O)[C@H](O)COP(=O)(O)O [FDP, fructose-1,6-diphosphate]
  LD50: 5800 to 6000 mg/kg
